In the NIST ThermoML archive (doi:10.1021/je200352g) one finds mass density data, which are given here for two compounds.

Each structure is given as a SMILES string. ± gives the expanded uncertainty stated by the source.

Broadly, the mass density is mass per unit of volume.

The conditions of this data set: 298 K; 101.33 kPa; Crystal; X-ray diffraction.

Turning to `CCCCCCCC[NH3+].O=P([O-])(O)O` [1-octanaminium dihydrogen phosphate], the mass density is 1282 ± 2 kg/m3. In the case of `CCCCCCCCC[NH3+].O=P([O-])(O)O` [1-nonylammonium dihydrogen phosphate], the mass density stood at 1268 ± 2 kg/m3.
